From US8546421B1, “Oncogenic-RAS-signal dependent lethal compounds” (The Trustees of Columbia University in the City of New York, priority 2007, dated 2013)

Experiments:
[1] = test system: RPMI-8226; assay: NCI60 anti-cancer screening
[2] = test system: DU-145; assay: NCI60 anti-cancer screening
[3] = test system: SK-MEL-28; assay: NCI60 anti-cancer screening
[4] = test system: SN12C; assay: NCI60 anti-cancer screening
[5] = test system: SR; assay: NCI60 anti-cancer screening
[6] = test system: BJ-derived cell lines (BJ-TERT/LT/ST/RAS^V12 cells); assay: Vi-Cell analysis (trypan blue exclusion); type: cell-based, human; conditions: 24 hours
Procedure: 200,000 cells were seeded in 6-well plates and treated with the indicated amount of 2-fold dilution series concentration of a candidate compound in 2 mL BJ growth medium. After 24 hours, cells were released with trypsin/EDTA, harvested in 1.1 mL growth medium, and transferred to a Vi-Cell (Beckman Coulter) disposable cup. After, trypan blue staining, 100 images of sample were taken and analysis of the images was carried out automatically by a Vi-Cell cell viability analyzer (Beckman Coulter).

[7] = test system: OVCAR-4; assay: NCI60 anti-cancer screening
[8] = test system: MOLT-4; assay: NCI60 anti-cancer screening
[9] = test system: UO-31; assay: NCI60 anti-cancer screening
[10] = test system: A549, Calu-1, PaCa, and HCT116 cells; assay: Alamar blue assay in KRAS-mutation-harboring cancer cells; type: cell-based, human
Procedure: A549, Calu-1, HCT116 and MIA PaCa-2 cell lines have an oncogenic mutation in the KRAS gene. Compounds which tested positive in the oncogenic HRAS primary screen were also tested for their selectivity against oncogenic KRAS which is more commonly mutated in human cancers.

[11] = test system: MDA-MB-435; assay: NCI60 anti-cancer screening
[12] = test system: BJ-TERT/LT/ST/RAS^V12 cells; assay: Counter screening with biologically active compounds; type: cell-based, human
Procedure: Biologically active compounds listed in Table 1 were dissolved in BJ medium at 10× final concentration and aliquoted into eppendorf tubes. 100 μL of each 10× solution was transferred to column 1 to column 12 or column 13 to column 24 of a single row in a 384-well daughter plate. This plate was designated as ‘10× biologically active plate’. In order to prepare lethal compound solution, Erastin and compounds 3, 6, 27, and 36 were dissolved in BJ medium at a concentration of 100 μg/mL, 400 μg/mL, 400 μg/mL, 100 μg/mL, and 200 μg/mL, respectively. Empty daughter plates were filled with 50 μL BJ media except for columns 5 and 13 where 100 μL of each lethal solution was transferred. After lethal solution transfer, 2-fold dilution series across columns 5 to 12 and columns 13 to 20 was made by transferring 50 μL compound solution to the next column successively (8-point dilution series), with mixing. These five plates were each designated ‘10× lethal plate’. Five assay plates were prepared by seeding 4,000 BJ-TERT/LT/ST/RAS^V12 cells per well in 32 μL of growth media in black, clear bottom 384-well plates. Cells in assay plates were first treated with biologically active compounds by transferring 4 μL from the 10× inhibitor plate. Cells were then treated with each lethal compound in a 2-fold dilution series by transferring 4 μL solution from each 10× lethal plate. […] Percent growth inhibition (% GI) was calculated by the following formula using fluorescence intensity values: % GI=100*(1−(X−N)/([…])) wherein X is the fluorescent intensity value measured at 590 nm for cells treated with biologically active compound and lethal compound; N is the fluorescent intensity value measured at 590 nm for a control containing no cells (i.e. biologically active compound in growth media); and P is the fluorescent intensity value measured at 590 nm for a control containing no lethal compound (i.e., cells treated with biologically active compound). Counter Screening with Iron Chelators

[13] = test system: BJ cell system (BJ-TERT, BJ-TERT/LT/ST, BJ-TERT/LT/ST/RAS^V12, DRD cells); assay: Alamar blue potency and selectivity in the engineered BJ cell system; conditions: oncogenic-RAS-expressing vs non-oncogenic-RAS-expressing BJ cells; alamar blue
Procedure: Empty “step-daughter plates” were filled with 50 μL DMEM, except for columns 3 and 13, where 100 μL of hit compound solution were cherry-picked from daughter plates. After compound transfer, 2-fold dilution series across columns 3 through 12 and columns 13 through 22 was made by transferring 50 μL of compound solution to the next column successively (10-point dilution series), with extensive mixing. Hit-picking and 2-fold dilution series were carried out using Biomek FX Span-8 module (Beckman Coulter). Assay plates were prepared by seeding 1,000 BJ-TERT, BJ-TERT/LT/ST, and BJ-TERT/LT/ST/RAS^V12 cells per well in 36 μL growth medium. Cells in assay plates were treated with compounds from step-daughter plates by transferring 4 μL. The final concentration of the compound was 5.33 μg/mL to 0.01 μg/mL in this 10-point, 2-fold dilution series. Assay plates were returned to the culture incubator and maintained for 48 hours before adding alamar blue.
Fresh daughter plates were made from the mother plate and cherry-picked hits from the first round, 2-fold dilution series experiment as described above. Assay plates were prepared by seeding 1,000 BJ-TERT, BJ-TERT/LT/ST, BJ-TERT/LT/ST/RAS^V12 or BJ-TERT/p53DD/CDK4/cyclinD1/ST/RAS^V12 (DRD) cells per well in 32 μL growth media. Cells in the assay plates were treated with compounds from the step-daughter plate by transferring 8 μL solution. The final concentration of the compound was 10.66 μg/mL to 0.02 μg/mL in a 10-point, 2-fold dilution series manner. Assay plates were returned to the culture incubator and maintained for 48 hours before adding alamar blue.
Cells were seeded in 384-well assay plates, treated with candidate compounds, and incubated in the culture incubator in 40 μL culture volume per well. […] Plates were incubated further for 16 hours to allow reduction of alamar blue, which results in the generation of red fluorescence. The fluorescence intensity was determined using a Victor 3 plate reader (Perkin Elmer) with a 535 nm excitation filter and a 590 nm emission filter.
In the subsequent two-fold dilution series testing, selectivity was calculated as the ratio of GI50 values in BJ-TERT/LT/ST and BJ-TERT/LT/ST/RAS^V12 cells. […] DRD cells are also derived from BJ primary cells and the effects of mutations in both lines should be similar.

[14] = test system: M14; assay: NCI60 anti-cancer screening
[15] = test system: NCI-H522; assay: NCI60 anti-cancer screening
[16] = test system: HS 578T; assay: NCI60 anti-cancer screening
[17] = test system: PC-3; assay: NCI60 anti-cancer screening
[18] = test system: ACHN; assay: NCI60 anti-cancer screening
[19] = test system: TK-10; assay: NCI60 anti-cancer screening
[20] = test system: HL-60(TB); assay: cells; conditions: Homo sapiens

Structure (SMILES): COC(=O)c1ccc(C2c3[nH]c4ccccc4c3CC(C(=O)OC)N2C(=O)CCl)cc1 (stereo not shown) [Compound 27]
- GI50 ([1]; Homo sapiens, RPMI-8226): 0.0431 µM
- CC50 ([1]; Homo sapiens, RPMI-8226, read-out: LC 50%): 6.99 µM
- GI 100% ([1]; RPMI-8226, Leukemia): 2.22 µM
- GI 100% ([2]; DU-145, Prostate Cancer): 1.4 µM
- GI50 ([2]; Homo sapiens, DU-145): 0.308 µM
- CC50 ([2]; Homo sapiens, DU-145, read-out: LC 50%): 4.01 µM
- GI50 ([3]; Homo sapiens, SK-MEL-28): 1.62 µM
- CC50 ([3]; Homo sapiens, SK-MEL-28, read-out: LC 50%): 6.76 µM
- GI 100% ([3]; SK-MEL-28, Melanoma): 3.31 µM
- GI50 ([4]; Homo sapiens): 1.25 µM
- CC50 ([4]; Homo sapiens, read-out: LC 50%): 6.12 µM
- GI 100% ([4]; Renal Cancer): 2.77 µM
- GI50 ([5]; Homo sapiens): 0.4 µM
- CC50 ([5]; Homo sapiens, read-out: LC 50%): 6.58 µM
- GI 100% ([5]; Leukemia): 1.6 µM
- potency and selectivity by trypan blue exclusion (in words) [6]: confirmed Compound 27 cell growth inhibition activity and selectivity
- GI50 ([7]; Homo sapiens, OVCAR-4): 4.3 µM
- CC50 ([7]; Homo sapiens, OVCAR-4, read-out: LC 50%): > 10 µM
- GI 100% ([7]; OVCAR-4, Ovarian Cancer): >10 µM
- GI50 ([8]; Homo sapiens, MOLT-4): 1.02 µM
- CC50 ([8]; Homo sapiens, MOLT-4, read-out: LC 50%): 7.39 µM
- GI 100% ([8]; MOLT-4, Leukemia): 2.74 µM
- GI50 ([9]; Homo sapiens, UO-31): 0.02 µM
- CC50 ([9]; Homo sapiens, UO-31, read-out: LC 50%): 0.0743 µM
- GI 100% ([9]; UO-31, Renal Cancer): 0.0385 µM
- activity in KRAS-mutation-harboring cancer cells (in words) [10]: active in all oncogenic-KRAS-harboring cancer cell lines tested
- GI50 ([11]; Homo sapiens, MDA-MB-435): 1.71 µM
- CC50 ([11]; Homo sapiens, MDA-MB-435, read-out: LC 50%): 8.19 µM
- GI 100% ([11]; MDA-MB-435, Breast Cancer): 3.74 µM
- effect of pan-caspase inhibitors (z-VAD-fmk, Boc-D-fmk) on compound-induced cell death [12]: not blocked
- biologically active compounds that suppress compound-induced cell death ([12]; 36 bioactive compounds of Table 1, 24 hours, alamar blue): GSH, L-Mim, TLCK, DFOM, SU6656, Ro31-8220, and U0126 were effective
- degree of selectivity against HRAS^G12V [13]: four-fold
- GI50 ([14]; Homo sapiens, M14): 1.07 µM
- CC50 ([14]; Homo sapiens, M14, read-out: LC 50%): 4.75 µM
- GI 100% ([14]; M14, Melanoma): 2.25 µM
- GI50 ([15]; Homo sapiens, NCI-H522): 1.63 µM
- CC50 ([15]; Homo sapiens, NCI-H522, read-out: LC 50%): 8.58 µM
- GI 100% ([15]; NCI-H522, Non-small cell lung carcinoma): 3.74 µM
- GI 100% ([16]; HS 578T, Breast Cancer): 2.85 µM
- GI50 ([16]; Homo sapiens, Hs-578T): 0.403 µM
- CC50 ([16]; Homo sapiens, Hs-578T, read-out: LC 50%): > 10 µM
- GI50 ([17]; Homo sapiens, PC-3): 0.231 µM
- CC50 ([17]; Homo sapiens, PC-3, read-out: LC 50%): 3.29 µM
- GI 100% ([17]; PC-3, Prostate Cancer): 1.08 µM
- GI50 ([18]; Homo sapiens): 0.187 µM
- CC50 ([18]; Homo sapiens, read-out: LC 50%): 3.25 µM
- GI 100% ([18]; Renal Cancer): 1.05 µM
- GI50 ([19]; Homo sapiens, TK-10): 1.9 µM
- CC50 ([19]; Homo sapiens, TK-10, read-out: LC 50%): 8.25 µM
- GI 100% ([19]; TK-10, Renal Cancer): 3.96 µM
- GI50 ([20]; HL-60): 0.28 µM
- CC50 ([20]; HL-60, read-out: LC 50%): 1.2 µM
